Measured values reported in patent US9656962B2, “Ring-contracted morphinans and the use thereof” (Purdue Pharma L.P., priority 2013, dated 2017).

Columns and labels:
Format in all cases: biochemical
[1] = target: T1, μ-opioid receptor (Homo sapiens (Human), UniProt P35372); experiment: μ-opioid receptor [35S]GTPγS functional assay, U-2 OS cells (Table 5); conditions: for Emax: relative to DAMGO; for EC50: μ GTP
Procedure: μ-Opioid Receptor Functional Assay Procedures: [^35S]GTPγS functional assays were conducted using freshly thawed μ-receptor membranes prepared in-house from a cell line expressing recombinant μ opioid receptor in a HEK-293, CHO or U-2 OS cell background, or purchased from a commercial source (Perkin Elmer, Shelton, Conn.; or DiscovRx, Fremont, Calif.). Assay reactions were prepared by sequentially adding the following reagents to binding buffer (100 mM NaCl, 10 mM MgCl2, 20 mM HEPES, pH 7.4) on ice (final concentrations indicated): membrane protein (0.026 mg/mL), saponin ([…]), GDP ([…]) and [^35S]GTPγS (0.20 nM; Perkin Elmer, Shelton, Conn.). The prepared membrane solution (190 μl/well) was transferred to 96-shallow well polypropylene plates containing 10 μl of 20× concentrated stock solutions of the agonist [D-Ala^2, N-methyl-Phe^4 Gly-ol^5]-enkephalin (DAMGO) prepared in dimethyl sulfoxide (DMSO). Plates were incubated for 30 min at about 25° C. with shaking Reactions were terminated by rapid filtration onto 96-well Unifilter GF/B filter plates (Perkin Elmer, Shelton, Conn.) using a 96-well tissue harvester (Perkin Elmer, Shelton, Conn.) followed by three filtration washes with 200 μl of ice-cold wash buffer (10 mM NaH2PO4, 10 mM Na2HPO4, pH 7.4). Filter plates were subsequently dried at 50° C. for 2-3 hours. BetaScint scintillation cocktail (Perkin Elmer, Shelton, Conn.) was added (50 μl/well) and plates were counted using a Packard Top-Count for 1 min/well. Data were analyzed using the sigmoidal dose-response curve fitting functions in GraphPad PRISM v. 3.0, or an in-house function for non-linear, sigmoidal dose-response curve-fitting. [^35S]GTPγS functional assays can also be conducted using freshly thawed μ-receptor membranes prepared from a cell line expressing recombinant μ opioid receptor in a CHO-K1 cell background.
μ GTP Emax (%) is the maximal effect elicited by a compound relative to the effect elicited by DAMGO, a standard μ agonist.

[2] = target: κ-opioid receptor (Homo sapiens (Human), UniProt P41145); experiment: κ-opioid receptor [35S]GTPγS functional assay, U-2 OS cells (Table 5); conditions: for Emax: relative to U69,593; for EC50: κ GTP
Procedure: κ-Opioid Receptor Functional Assay Procedures: Functional [^35S]GTPγS binding assays were conducted as follows. κ opioid receptor membrane solution was prepared by sequentially adding final concentrations of 0.026 μg/μl κ membrane protein (in-house), 10 μg/mL saponin, 3 μM GDP and 0.20 nM [^35S]GTPγS to binding buffer (100 mM NaCl, 10 mM MgCl2, 20 mM HEPES, pH 7.4) on ice. The prepared membrane solution (190 μl/well) was transferred to 96-shallow well polypropylene plates containing 10 μl of 20× concentrated stock solutions of agonist prepared in DMSO. Plates were incubated for 30 min at a temperature of about 25° C. with shaking. Reactions were terminated by rapid filtration onto 96-well Unifilter GF/B filter plates (Perkin Elmer, Shelton, Conn.) using a 96-well tissue harvester (Packard) and followed by three filtration washes with 200 μl ice-cold binding buffer (10 mM NaH2PO4, 10 mM Na2HPO4, pH 7.4). Filter plates were subsequently dried at 50° C. for 2-3 hours. Fifty μl/well scintillation cocktail (Perkin Elmer, Shelton, Conn.) was added and plates were counted in a Packard Top-Count for 1 min/well.
κ GTP Emax (%) is the maximal effect elicited by a compound relative to the effect elicited by U69,593.
The following TABLE 5 provides results on the activity response of certain Compounds of the Invention at the μ- and κ-opioid receptors determined as described above using U-2 OS cells.

[3] = target: T1, μ-opioid receptor; experiment: μ-opioid receptor [35S]GTPγS functional assay, HEK-293 cells (Table 6); conditions: for Emax: relative to DAMGO; for EC50: μ GTP
How it was run: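 [35S]GTPγS (0.20 nM) binding in HEK-293 membranes expressing recombinant receptor (0.026 mg/mL protein), with GDP (3 mM) and saponin, HEPES buffer pH 7.4, 30 min at about 25° C. Bound radioactivity collected by filtration and counted. Emax (%) expressed relative to DAMGO from sigmoidal dose-response fits.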

## COc1ccc2c(c1)[C@]13CCN(CC4CC4)[C@H](C2)[C@]1(O)C[C@H](C(=O)O)C3 [Compound 14, (2R,3aS,4R,9bS)-12-(cyclopropylmethyl)-3a-hydroxy-8-methoxy-1,2,3,3a,4,5-hexahydro-4,9b-(epiminoethano)-cyclopenta[a]naphthalene-2-carboxylic acid]
[1]
  Emax: 26.7 ± 2.4%
  EC50: 0.126 ± 0.0377 µM
[2]
  Emax: 100 ± 2.52%
  EC50: 147 ± 11.6 nM

## CN(C)C(=O)[C@@H]1C[C@]23CCN(CC4CC4)[C@H](Cc4ccc(O)cc42)[C@]3(O)C1 [Compound 62, (2R,3aS,4R,9bS)-12-(cyclopropylmethyl)-3a,8-dihydroxy-N,N-dimethyl-1,2,3,3a,4,5-hexahydro-4,9b-(epiminoethano)cyclo-penta[a]naphthalene-2-carboxamide]
[1]
  Emax: 25 ± 0.58%
  EC50: 0.017 ± 0.00331 µM
[2]
  Emax: 109 ± 3.67%
  EC50: 23.6 ± 1.09 nM

## COc1ccc2c(c1)[C@]13CCN(CC4CC4)[C@H](C2)[C@]1(O)C[C@@H](C#N)C3 [Compound 26, (2S,3aS,4R,9bS)-12-(cyclopropylmethyl)-3a-hydroxy-8-methoxy-1,2,3,3a,4,5-hexahydro-4,9b-(epiminoethano)-cyclopenta[a]naphthalene-2-carbonitrile]
[1]
  Emax: 63 ± 5.77%
  EC50: 1.13 ± 0.117 µM
[2]
  Emax: 106 ± 2.03%
  EC50: 829 ± 100 nM

## CCN(CC)C(=O)[C@@H]1C[C@]23CCN(CC4CC4)[C@H](Cc4ccc(O)cc42)[C@]3(O)C1 [Compound 59, (2R,3aS,4R,9bS)-12-(cyclopropylmethyl)-N,N-diethyl-3a,8-dihydroxy-1,2,3,3a,4,5-hexahydro-4,9b-(epiminoethano)cyclo-penta[a]naphthalene-2-carboxamide]
[1]
  Emax: 25.7 ± 0.33%
  EC50: 0.0226 ± 0.00631 µM
[2]
  Emax: 105 ± 4.33%
  EC50: 26 ± 2.61 nM

## COc1ccc2c(c1)[C@]13CCN(CC4CC4)[C@H](C2)[C@]1(O)C[C@H](C(=O)N1CCCC1)C3 [Compound 19, ((2R,3aS,4R,9bS)-12-(cyclopropylmethyl)-3a-hydroxy-8-methoxy-1,2,3,3a,4,5-hexahydro-4,9b-(epiminoethano)cyclo-penta[a]naphthalene-2-yl)(pyrrolidin-1-yl)methanone]
[1]
  Emax: 29.3 ± 5.93%
  EC50: 2.96 ± 0.864 µM
[2]
  Emax: 97.7 ± 0.67%
  EC50: 4720 ± 150 nM

## NC(=O)[C@H]1C[C@]23CCN(CC(F)(F)F)[C@H](Cc4ccc(O)cc42)[C@]3(O)C1 [Compound 76, (2S,3aS,4R,9bS)-3a,8-dihydroxy-12-(2,2,2-trifluoroethyl)-1,2,3,3a,4,5-hexahydro-4,9b-(epiminoethano)cyclo-penta[a]naphthalene-2-carboxamide]
[1]
  Emax: 2%
[1]; bound given in μM
  EC50: > 20 µM
[2]
  Emax: 81 ± 6.66%
  EC50: 923 ± 31.9 nM

## COc1ccc2c(c1)[C@]13CCN(CC4CC4)[C@H](C2)[C@]1(O)C[C@H](N)C3 [Compound 21, (2R,3aS,4R,9bS)-2-amino-12-(cyclopropylmethyl)-8-methoxy-1,2,3,3a,4,5-hexahydro-4,9b-(epimino-ethano)cyclopenta[a]naphthalene-3a-ol]
[1]
  Emax: 8.67 ± 1.76%
[1]; bound given in μM
  EC50: > 20 µM
[2]
  Emax: 90 ± 2.08%
  EC50: 5590 ± 738 nM

## O=C(NCCc1ccccc1)[C@@H]1C[C@]23CCN(CC4CC4)[C@H](Cc4ccc(O)cc42)[C@]3(O)C1 [Compound 50, (2R,3aS,4R,9bS)-12-(cyclopropylmethyl)-3a,8-dihydroxy-N-phenethyl-1,2,3,3a,4,5-hexahydro-4,9b-(epiminoethano)-cyclopenta[a]naphthalene-2-carboxamide]
[1]
  Emax: 23.3 ± 1.86%
  EC50: 0.0069 ± 0.00054 µM
[2]
  Emax: 107.7 ± 0.88%
  EC50: 1.95 ± 0.33 nM

## CC(C)CNC(=O)[C@@H]1C[C@]23CCN(CC4CC4)[C@H](Cc4ccc(O)cc42)[C@]3(O)C1 [Compound 35, (2R,3aS,4R,9bS)-12-(cyclopropylmethyl)-3a,8-dihydroxy-N-isobutyl-1,2,3,3a,4,5-hexahydro-4,9b-(epiminoethano)cyclo-penta[a]naphthalene-2-carboxamide]
[1]
  Emax: 29.7 ± 0.33%
  EC50: 0.0197 ± 0.00527 µM
[2]
  Emax: 111 ± 2.96%
  EC50: 7.75 ± 0.41 nM

## CN(CC(=O)O)C(=O)[C@@H]1C[C@]23CCN(CC4CC4)[C@H](Cc4ccc(O)cc42)[C@]3(O)C1 [Compound 66, 2-((2R,3aS,4R,9bS)-12-(cyclopropyl-methyl)-3a,8-dihydroxy-N-methyl-1,2,3,3a,4,5-hexahydro-4,9b-(epiminoethano)cyclopenta[a]naphthalene-2-carboxamido)acetic acid]
[1]
  Emax: 15.5 ± 1.5%
  EC50: 0.029 ± 0.00429 µM
[2]
  Emax: 77.3 ± 0.88%
  EC50: 168 ± 8.15 nM

## N[C@H]1CC23CCN(CC4CC4)[C@H](Cc4ccc(O)cc42)[C@]3(O)C1 (stereo in doubt) [Compound 29, (2S,3aS,4R,9bS)-2-amino-12-(cyclopropylmethyl)-1,2,3,3a,4,5-hexahydro-4,9b-(epiminoethano)-cyclopenta[a]naphthalene-3a,8-diol]
[1]
  Emax: 22 ± 1.73%
  EC50: 0.00778 ± 0.00163 µM
[2]
  Emax: 107 ± 3.18%
  EC50: 0.62 ± 0.04 nM

## COc1ccc2c(c1)[C@]13CCN(CC4CC4)[C@H](C2)[C@]1(O)C[C@@H](C(=O)N1CCCC1)C3 [Compound 20, ((2S,3aS,4R,9bS)-12-(cyclopropylmethyl)-3a-hydroxy-8-methoxy-1,2,3,3a,4,5-hexahydro-4,9b-(epiminoethano)cyclo-penta[a]naphthalene-2-yl)(pyrrolidin-1-yl)methanone]
[1]
  Emax: 43.3 ± 2.4%
  EC50: 1.23 ± 0.0835 µM
[2]
  Emax: 87.7 ± 4.33%
  EC50: 4400 ± 357 nM

## O=C([C@@H]1C[C@]23CCN(CC4CC4)[C@H](Cc4ccc(O)cc42)[C@]3(O)C1)N1CCOCC1 [Compound 58, ((2R,3aS,4R,9bS)-12-(cyclopropylmethyl)-3a,8-dihydroxy-1,2,3,3a,4,5-hexahydro-4,9b-(epiminoethano)cyclopenta-[a]naphthalen-2-yl)(morpholino)-methanone]
[1]
  Emax: 21.7 ± 5.49%
  EC50: 0.0143 ± 0.00543 µM
[2]
  Emax: 93.7 ± 4.48%
  EC50: 24.3 ± 5.67 nM

## O=C(NCc1ccc(O)cc1Cl)[C@@H]1C[C@]23CCN(CC4CC4)[C@H](Cc4ccc(O)cc42)[C@]3(O)C1 [Compound 127, (2R,3aS,4R,9bS)-N-(2-chloro-4-hydroxybenzyl)-12-(cyclopropylmethyl)-3a,8-dihydroxy-1,2,3,3a,4,5-hexahydro-4,9b-(epiminoethano)cyclopenta-[a]naphthalene-2-carboxamide]
[3]
  Emax: -1%
[3]; bound given in μM
  EC50: > 20 µM

## NC(=O)c1ccc2c(c1)[C@]13CCN(CC4CC4)[C@H](C2)[C@]1(O)C[C@H](C(=O)NCCN1CCOCC1)C3 [Compound 118, (2R,3aS,4R,9bS)-12-(cyclopropylmethyl)-3a-hydroxy-N^2-(2-morpholinoethyl)-1,2,3,3a,4,5-hexahydro-4,9b-(epimino-ethano)cyclopenta[a]naphthalene-2,8-dicarboxamide]
[3]
  Emax: 13.2 ± 1.17%
  EC50: 0.175 ± 0.0099 µM

## O=C(NCc1cc(O)cc(O)c1)[C@@H]1C[C@]23CCN(CC4CC4)[C@H](Cc4ccc(O)cc42)[C@]3(O)C1 [Compound 139, (2R,3aS,4R,9bS)-12-(cyclopropylmethyl)-N-(3,5-dihydroxybenzyl)-3a,8-dihydroxy-1,2,3,3a,4,5-hexahydro-4,9b-(epimino-ethano)cyclopenta[a]naphthalene-2-carboxamide]
[3]
  Emax: -1%
[3]; bound given in μM
  EC50: > 20 µM
